Laboratory results published in patent US20210179578A1, “OX1 ANTAGONISTS” (Heptares Therapeutics Limited, priority 2017, published 2021).

What was measured:
human OX1 receptor = biological target: T1, human OX1 receptor (Homo sapiens, UniProt O43613); test: [3H]-radioligand binding assay, OX1; set-up: made in house; host or cells: SF21 insect cells (baculovirus; P0 virus made in SF9); conditions: [3H]-radioligand binding, human OX1 membranes; read-out: pKi average OX1 (converted)
T1 sequence (O43613 1-425): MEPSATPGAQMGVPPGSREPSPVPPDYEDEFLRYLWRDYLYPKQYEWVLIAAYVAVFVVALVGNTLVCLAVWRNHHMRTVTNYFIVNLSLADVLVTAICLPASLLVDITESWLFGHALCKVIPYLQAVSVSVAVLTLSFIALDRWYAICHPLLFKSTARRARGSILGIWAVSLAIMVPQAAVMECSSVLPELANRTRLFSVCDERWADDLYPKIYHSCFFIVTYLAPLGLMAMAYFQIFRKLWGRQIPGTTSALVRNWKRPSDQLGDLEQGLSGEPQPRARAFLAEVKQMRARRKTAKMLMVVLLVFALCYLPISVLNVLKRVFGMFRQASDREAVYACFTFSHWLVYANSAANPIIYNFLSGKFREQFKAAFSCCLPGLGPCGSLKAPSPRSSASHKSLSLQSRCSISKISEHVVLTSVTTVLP
Excerpt: (§1) Cloning, Baculovirus generation, large-scale infection of SF21 cells and membrane preparation. Human OX1 or OX2 receptor were cloned into Invitrogen's (ThermoFisher Scientific, UK) Bac-to-Bac Baculovirus Expression System. P0 baculovirus was generated by transfecting SF9 cells with bacmid DNA using Cellfectin® II transfection reagent (ThermoFisher Scientific, UK, Catalog number 10362-100). Following P0 generation P1 virus was then generated ready for large scale infection and membrane preparation. SF21 cells were grown in expression medium ESF921 (Expression Systems, USA, catalog number 96-001-01) supplemented with 10% heat-inactivated FBS and 1% Pen/Strep and were infected at a cell density of 2.5×10^6 cells/mL and a multiplicity of infection of 1.0 for both human OX1R and OX2R. Incubation was carried out at over 48 h in a shaking incubator set at 27° C. The cell culture was then centrifuged at 2,500 rcf for 10 min at 4° C. The pellets were resuspended in cold PBS supplemented with Roche's Complete EDTA-free protease inhibitor cocktail tablets (Roche Applied Sciences, catalog number 05056489001), 1 mM PMSF and 1 mM EDTA. The resuspended cell paste was then centrifuged at 3,273 rcf for 12 min at 4° C. The supernatant was discarded and the pellet frozen at −80° C. The cell pellet from a 4 L culture was resuspended in buffer containing 50 mM HEPES pH 7.5, 150 mM NaCl, 8 Roche EDTA-Free protease inhibitor cocktail tablets and 1 mM PMSF. The suspension was left stirring at rt for 1 h and then homogenised for 90 s at 9,500 rpm using a VDI 25 (VWR, USA) homogeniser. The cells were then lysed using a Microfluidiser processor M-110L Pneumatic (Microfluidics, USA) at 60 PSI and membranes collected by ultracentrifugation at 204.7 k×g for 1 h. The supernatant was discarded and the pellet was resuspended and homogenised in 90 s at 9,500 rpm in 50 mL (25 mL for each 2 L culture) of buffer containing 50 mM Hepes pH 7.5, 150 mM NaCl, 3 Roche EDTA-free protease inhibitor cocktail tablets and 1 mM PMSF. The resulting membranes were then stored at −80° C.
(§2) [^3H]-radioligand binding assay. After thawing, membrane homogenates were resuspended in the binding buffer (8.5 mM HEPES, pH 7.4, 1.3 mM CaCl2, 1.2 mM MgSO4, 118 mM NaCl, 4.7 mM KCl, 4 mM NaHCO3, 1.2 mM KH2PO4, 11 mM glucose) to a final assay concentration of 6.4 μg (OX1) or 1.4 μg (OX2) protein per well. Saturation isotherms were determined by the addition of various concentrations (0-30 nM) of [^3H]-4-(2,6-difluoro-4-methoxybenzyl)-2-(5,6-dimethoxypyridin-3-yl)-2H-1,2,4-benzothiadiazin-3(4H)-one 1,1-dioxide (Christopher et al, MedChemComm., 2015, 6, 947-955) in a total reaction volume of 250 μL for 90 min at rt. At the end of the incubation, membranes were filtered onto a 96-well GF/B filter pre-incubated with 0.5% polyethylenimine, with a Tomtec cell harvester and washed 5 times with 0.5 mL distilled water. Non-specific binding (NSB) was measured in the presence of 3.33 μM [4-(5-chloro-1,3-benzoxazol-2-yl)-7-methyl-1,4-diazepan-1-yl][5-methyl-2-(2H-1,2,3-triazol-2-yl)phenyl]methanone (Wertz et al, Angew. Chem. Int. Ed., 2011, 50, 11511-11515). Radioactivity on the filter was counted (1 min) on a Microbeta radiometric plate counter (Perkin Elmer) after addition of 50 μL of scintillation fluid (LabLogic: Part #SG-BXX-14). […] IC50 values were derived from the inhibition curve and the equilibrium dissociation constant (Ki) values were calculated using the Cheng-Prusoff equation.

human OX2 receptor = biological target: T2, human OX2 receptor (Homo sapiens, UniProt O43614); test: [3H]-radioligand binding assay, OX2; set-up: made in house; host or cells: SF21 insect cells (baculovirus; P0 virus made in SF9); conditions: [3H]-radioligand binding, human OX2 membranes; read-out: pKi average OX2 (converted)
T2 sequence (O43614 1-444): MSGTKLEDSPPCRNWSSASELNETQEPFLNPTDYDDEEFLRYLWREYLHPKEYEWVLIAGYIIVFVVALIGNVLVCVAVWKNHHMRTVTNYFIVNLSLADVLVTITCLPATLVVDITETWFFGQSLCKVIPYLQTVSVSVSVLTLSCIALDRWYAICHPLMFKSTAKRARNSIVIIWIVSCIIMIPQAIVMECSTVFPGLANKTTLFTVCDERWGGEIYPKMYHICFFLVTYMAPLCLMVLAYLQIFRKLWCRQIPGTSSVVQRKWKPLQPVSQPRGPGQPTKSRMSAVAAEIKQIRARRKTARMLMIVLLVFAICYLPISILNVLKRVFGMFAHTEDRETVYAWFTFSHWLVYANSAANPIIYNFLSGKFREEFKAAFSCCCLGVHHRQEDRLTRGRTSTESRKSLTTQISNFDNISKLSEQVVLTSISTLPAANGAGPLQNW
Excerpt: as §1, §2

COc1ncc(C2CCc3c(F)cccc3N(Cc3cc(C#N)ccc3F)C2=O)cc1C(C)(F)F (single isomer, unassigned) [Example 13, 3-({3-[5-(1,1-difluoroethyl)-6-methoxypyridin-3-yl]-6-fluoro-2-oxo-2,3,4,5-tetrahydro-1H-1-benzazepin-1-yl}methyl)-4-fluorobenzonitrile]
Ki (human OX1 receptor): 0.794 nM | Ki (human OX2 receptor): > 158 nM

COc1ncc(C2CCc3c(F)cccc3N(Cc3c(F)cc(Cl)cc3F)C2=O)cc1S(C)(=O)=O (single isomer, unassigned) [Example 22, 1-(4-chloro-2,6-difluorobenzyl)-6-fluoro-3-[6-methoxy-5-(methylsulfonyl)pyridin-3-yl]-1,3,4,5-tetrahydro-2H-1-benzazepin-2-one]
Ki (human OX1 receptor): 0.501 nM | Ki (human OX2 receptor): > 631 nM

COc1ncc(N2CCc3c(F)cccc3N(Cc3c(F)cc(Br)cc3F)C2=O)cc1S(C)(=O)=O [Example 14, 1-(4-bromo-2,6-difluorobenzyl)-6-fluoro-3-[6-methoxy-5-(methylsulfonyl)pyridin-3-yl]-1,3,4,5-tetrahydro-2H-1,3-benzodiazepin-2-one]
Ki (human OX1 receptor): 3.16 nM | Ki (human OX2 receptor): > 251 nM

Cc1ccc(N2CCc3c(F)cccc3N(Cc3c(F)cc(Br)cc3F)C2=O)cc1S(C)(=O)=O [Example 27, 1-(4-bromo-2,6-difluorobenzyl)-6-fluoro-3-[4-methyl-3-(methylsulfonyl)phenyl]-1,3,4,5-tetrahydro-2H-1,3-benzodiazepin-2-one]
Ki (human OX1 receptor): 1.58 nM | Ki (human OX2 receptor): > 316 nM

Cc1ccc(N2CCc3c(F)cccc3N(Cc3c(F)cc(Br)cc3F)C2=O)cc1C(C)(F)F [Example 1, 1-(4-bromo-2,6-difluorobenzyl)-3-[3-(1,1-difluoroethyl)-4-methylphenyl]-6-fluoro-1,3,4,5-tetrahydro-2H-1,3-benzodiazepin-2-one]
Ki (human OX1 receptor): 2 nM | Ki (human OX2 receptor): 200 nM

COc1ncc(N2CCc3c(F)cccc3N(Cc3ccc(Br)cc3F)C2=O)cc1C(C)(F)F [Example 10, 1-(4-bromo-2-fluorobenzyl)-3-[5-(1,1-difluoroethyl)-6-methoxypyridin-3-yl]-6-fluoro-1,3,4,5-tetrahydro-2H-1,3-benzodiazepin-2-one]
Ki (human OX1 receptor): 1.26 nM | Ki (human OX2 receptor): > 251 nM

Cc1ncc(C2CCc3c(F)cccc3N(Cc3c(F)cc(Br)cc3F)C2=O)cc1C(C)(F)F (single isomer, unassigned) [Example 35, 1-(4-bromo-2,6-difluorobenzyl)-3-[5-(1,1-difluoroethyl)-6-methylpyridin-3-yl]-6-fluoro-1,3,4,5-tetrahydro-2H-1-benzazepin-2-one]
Ki (human OX1 receptor): 2 nM | Ki (human OX2 receptor): > 126 nM

COc1ncc(C2CCc3c(F)cccc3N(Cc3c(F)cc(Br)cc3F)C2=O)cc1S(C)(=O)=O (racemic) [Example 19, 1-(4-bromo-2,6-difluorobenzyl)-6-fluoro-3-[6-methoxy-5-(methylsulfonyl)pyridin-3-yl]-1,3,4,5-tetrahydro-2H-1-benzazepin-2-one]
Ki (human OX1 receptor): 3.98 nM | Ki (human OX2 receptor): > 251 nM

COCc1cc(F)c(CN2C(=O)N(c3cnc(C)c(C(C)(F)F)c3)CCc3c(F)cccc32)c(F)c1 [Example 33, 3-[5-(1,1-difluoroethyl)-6-methylpyridin-3-yl]-1-[2,6-difluoro-4-(methoxymethyl)benzyl]-6-fluoro-1,3,4,5-tetrahydro-2H-1,3-benzodiazepin-2-one]
Ki (human OX1 receptor): 0.631 nM | Ki (human OX2 receptor): > 251 nM

Cc1ncc(C2CCc3c(F)cccc3N(Cc3c(F)cc(Br)cc3F)C2=O)cc1S(C)(=O)=O (single isomer, unassigned) [Example 38, 1-(4-bromo-2,6-difluorobenzyl)-6-fluoro-3-[6-methyl-5-(methylsulfonyl)pyridin-3-yl]-1,3,4,5-tetrahydro-2H-1-benzazepin-2-one]
Ki (human OX1 receptor): 10 nM | Ki (human OX2 receptor): > 316 nM

COc1ncc(C2CCc3c(F)cccc3N(Cc3c(F)cc(Br)cc3F)C2=O)cc1C(C)(F)F (single isomer, unassigned) [Example 12, 1-(4-bromo-2,6-difluorobenzyl)-3-[5-(1,1-difluoroethyl)-6-methoxypyridin-3-yl]-6-fluoro-1,3,4,5-tetrahydro-2H-1-benzazepin-2-one]
Ki (human OX1 receptor): 0.398 nM | Ki (human OX2 receptor): > 398 nM

COc1ncc(N2CCc3c(F)cccc3N(Cc3c(F)cc(Br)cc3F)C2=O)cc1C(C)(F)F [Example 3, 1-(4-bromo-2,6-difluorobenzyl)-3-[5-(1,1-difluoroethyl)-6-methoxypyridin-3-yl]-6-fluoro-1,3,4,5-tetrahydro-2H-1,3-benzodiazepin-2-one]
Ki (human OX1 receptor): 1.26 nM | Ki (human OX2 receptor): > 79.4 nM

Cc1cc(C)c(S(C)(=O)=O)cc1N1CCc2c(F)cccc2N(Cc2c(F)cc(Br)cc2F)C1=O [Example 31, 1-(4-bromo-2,6-difluorobenzyl)-3-[2,4-dimethyl-5-(methylsulfonyl)phenyl]-6-fluoro-1,3,4,5-tetrahydro-2H-1,3-benzodiazepin-2-one]
Ki (human OX1 receptor): 1.26 nM | Ki (human OX2 receptor): 200 nM

Cc1cc(C)c(S(C)(=O)=O)cc1N1CCc2ccccc2N(Cc2c(F)cc(Br)cc2F)C1=O [Example 29, 1-(4-bromo-2,6-difluorobenzyl)-3-[2,4-dimethyl-5-(methylsulfonyl)phenyl]-1,3,4,5-tetrahydro-2H-1,3-benzodiazepin-2-one]
Ki (human OX1 receptor): 1.26 nM | Ki (human OX2 receptor): 100 nM

COc1cc(F)c(CN2C(=O)N(c3cc(S(C)(=O)=O)c(OC)nc3OC)CCc3c(F)cccc32)c(F)c1 [Example 25, 1-(2,6-difluoro-4-methoxybenzyl)-3-[2,6-dimethoxy-5-(methylsulfonyl)pyridin-3-yl]-6-fluoro-1,3,4,5-tetrahydro-2H-1,3-benzodiazepin-2-one]
Ki (human OX1 receptor): 1.58 nM | Ki (human OX2 receptor): > 126 nM

COc1nc(OC)c(C(C)(F)F)cc1N1CCc2c(F)cccc2N(Cc2c(F)cc(Br)cc2F)C1=O [Example 23, 1-(4-bromo-2,6-difluorobenzyl)-3-[5-(1,1-difluoroethyl)-2,6-dimethoxypyridin-3-yl]-6-fluoro-1,3,4,5-tetrahydro-2H-1,3-benzodiazepin-2-one]
Ki (human OX1 receptor): 1.26 nM | Ki (human OX2 receptor): > 126 nM
